Results on one compound are retold here after publication PMC4669759 (Cell Death & Disease, 2015).

What all share (type): cell-based
One assay has as its target T1, MCL-1–NOXA interactions (Homo sapiens, UniProt Q07820).
T1 construct: expressed in transfected cells; host or cells: HeLa cells stably expressing a GAL4-luciferase reporter
As to the kind of experiment: Mammalian two-hybrid assay, MCL-1–NOXA, HeLa cells. The following applies: 24 h, luciferase two-hybrid. The method, then: (§1) (a) H929 cells were treated with increasing concentrations of A-1210477 for 4 h. […] All data represent the mean of triplicate experiments, with error bars indicating the S.D. (b) Quantitative measurement of protein–protein interactions using a luciferase-based mammalian two-hybrid assay. […] All data represent the means of triplicate experiments, with error bars indicating the S.Ds.
(§2) HeLa cells stably expressing a GAL4-luciferase reporter were seeded into 10 cm dishes at 5 × 10^5 cells per plate. In all, 24 μg of a plasmid expressing both the ‘bait' and ‘prey' fusion proteins (GAL4DBD-BIM and VP16AD-BCL-2, GAL4DBD-BCL-XL and VP16AD- BCL-XS, or GAL4DBD-MCL-1 and VP16AD-NOXA, respectively) were mixed with 1.5 ml OptiMEM (Invitrogen). Separately, 24 μl Lipofectamine 2000 (Invitrogen) were mixed with 1.5 ml OptiMEM. Both solutions were incubated for 5 min (RT) and then mixed together for 20 min. Three milliliters of the mixture was added to cells in 12 ml culture medium lacking antibiotics, incubated at 37 °C for 24 h, and then transferred to 96-well plates at 20 000 cells per well. Compounds were added in half-log dilutions, starting from 1 μM and ending at 0.0001 μM for 24 h, and luciferase activity was assessed using ONE-Glo reagent (Promega). All data were plotted as the percentage of complex remaining relative to untreated controls.

Another assay has as its system OPM-2 cells. As to the kind of experiment: Navitoclax / A-1210477 combination cell viability, OPM-2 cells. The following applies: OPM-2, 48 h. On the procedure: (§3) Figure 6 A-1210477 synergizes with navitoclax to kill hematological and solid tumor cell lines. BxPC-3, EJ-1, H23, and OPM-2 cells were treated with increasing concentrations of navitoclax in the presence or absence of increasing concentrations of A-1210477 for 48 h before assessing cell viability. All data points represent the means of triplicate experiments, with error bars indicating the S.E.M. TEXT PRINTED IN THE PICTURE: A-1210477 + navitoclax: Bliss sum (BxPC-3): 716; Bliss sum (EJ-1): 464; Bliss sum (H23): 76; Bliss sum (OPM-2): 946 DOUBTS OF THE COPYIST ABOUT THIS PICTURE: The Bliss sums apply to the combination of A-1210477 and navitoclax. The picture prints the two names separately (legend heading and axis title), not as one joined label.
(§4) Adherent cell lines were seeded at 50 000 cells per well in 96-well plates and treated for 48 h with compounds diluted in half-log steps starting at 30 μM and ending at 0.001 μM. Multiple myeloma cell lines were seeded at 15 000–20 000 cells per well and treated similarly. Effects on proliferation and viability were determined using CellTiter-Glo reagent from Promega (Madison, WI, USA) according to the manufacturer's instructions. IC50 values were determined by non-linear regression analysis of the concentration response data.

The subject of the next assay is BxPC-3 cells. Put plainly: Navitoclax / A-1210477 combination cell viability, BxPC-3 cells. The conditions noted are these: BxPC-3, 48 h. The method, then: as §3, §4
In a further assay the target is T2, BCL-2–BIM interactions (Homo sapiens, UniProt P10415).
T2 construct: expressed in transfected cells; host or cells: HeLa cells stably expressing a GAL4-luciferase reporter
Put plainly: Mammalian two-hybrid assay, BCL-2–BIM, HeLa cells. The following applies: 24 h, luciferase two-hybrid. The method, then: as §1, §2

T2 sequence (P10415 whole entry, the tested form may be a part): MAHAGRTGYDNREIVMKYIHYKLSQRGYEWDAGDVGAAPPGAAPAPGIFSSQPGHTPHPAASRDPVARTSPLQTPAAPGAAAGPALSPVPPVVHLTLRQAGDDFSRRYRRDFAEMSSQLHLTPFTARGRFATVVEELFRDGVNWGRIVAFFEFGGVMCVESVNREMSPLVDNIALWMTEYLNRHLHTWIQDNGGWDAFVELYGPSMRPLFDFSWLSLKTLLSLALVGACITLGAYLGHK
T1 sequence (Q07820 whole entry, the tested form may be a part): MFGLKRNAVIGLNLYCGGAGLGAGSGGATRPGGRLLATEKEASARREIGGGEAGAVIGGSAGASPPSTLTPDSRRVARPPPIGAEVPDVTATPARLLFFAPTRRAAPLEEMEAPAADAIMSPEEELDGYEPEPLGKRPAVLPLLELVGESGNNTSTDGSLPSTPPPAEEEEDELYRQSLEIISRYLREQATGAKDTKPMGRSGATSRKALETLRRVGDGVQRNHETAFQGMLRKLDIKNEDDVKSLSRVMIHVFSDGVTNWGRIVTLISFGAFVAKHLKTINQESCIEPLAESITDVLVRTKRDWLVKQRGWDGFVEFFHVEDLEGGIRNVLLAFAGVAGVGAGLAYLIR

Usually IC50 stands for the concentration that gives 50% inhibition. Low readings indicate higher potency, high ones lower potency. For `Cc1nn(C)c(COc2ccc(N3CCN(S(=O)(=O)N(C)C)CC3)cc2)c1-c1cccc2c(CCCOc3cccc4ccccc34)c(C(=O)O)n(CCN3CCOCC3)c12` [A-1210477], the IC50 at MCL-1–NOXA interactions is roughly 1 µM. Also, the potentiation of navitoclax result in the assay with OPM-2 cells and in the assay with BxPC-3 cells was “substantially shifted the dose–response curve of navitoclax” throughout. Further, on BCL-2–BIM interactions, the “effect on BCL-2–BIM interactions” value was “no effect”.
